{
  "source": "patent US20220401564A1",
  "about": "(DANA-FARBER CANCER INSTITUTE, INC., priority 2019, published 2022)",
  "key": {"[1]": {"system": "other identified HDAC proteins", "assay": "Change in cellular protein abundance (TMT proteomics) in Kelly cells", "type": "cell-based, human", "details": "1 μM, 5 hours, vs DMSO", "method": "Lysis buffer (8 M Urea, 50 mM NaCl, 50 mM 4-(2hydroxyethyl)-1-piperazineethanesulfonic acid (EPPS) pH 8.5, protease and phosphatase inhibitors from Roche®) were added to the cell pellets and homogenized by 20 passes through a 21 gauge (1.25 in. long) needle to achieve a cell lysate with a protein concentration between 1-4 mg mL-1. A micro-BCA assay (Pierce™) was used to determine the final protein concentration in the cell lysate. 200 μg of protein for each sample were reduced and alkylated as described in Donovan et al., Elife 7:e38430 (2018).\nProteins were precipitated using methanol/chloroform. Four volumes of methanol were added to the cell lysate, followed by one volume of chloroform, and finally three volumes of water. The mixture was vortexed and centrifuged to separate the chloroform phase from the aqueous phase. […]\nAnhydrous ACN was added to each peptide sample to a final concentration of 30% v/v, and labeling was induced with the addition of TMT reagent to each sample at a ratio of 1:4 peptide:TMT label. […] The sample channels were combined at a 1:1:1:1:1:1:1:1:1:1:1 ratio, desalted using Cis solid phase extraction cartridges (Waters®) and analyzed by LC-MS for channel ratio comparison. Samples were then combined using the adjusted volumes determined in the channel ratio analysis and dried down in a speed vacuum. […]"}, "[2]": {"target": "T1, HDAC6 (Homo sapiens, UniProt Q9UBN7)", "T1 sequence (Q9UBN7 1-1215)": "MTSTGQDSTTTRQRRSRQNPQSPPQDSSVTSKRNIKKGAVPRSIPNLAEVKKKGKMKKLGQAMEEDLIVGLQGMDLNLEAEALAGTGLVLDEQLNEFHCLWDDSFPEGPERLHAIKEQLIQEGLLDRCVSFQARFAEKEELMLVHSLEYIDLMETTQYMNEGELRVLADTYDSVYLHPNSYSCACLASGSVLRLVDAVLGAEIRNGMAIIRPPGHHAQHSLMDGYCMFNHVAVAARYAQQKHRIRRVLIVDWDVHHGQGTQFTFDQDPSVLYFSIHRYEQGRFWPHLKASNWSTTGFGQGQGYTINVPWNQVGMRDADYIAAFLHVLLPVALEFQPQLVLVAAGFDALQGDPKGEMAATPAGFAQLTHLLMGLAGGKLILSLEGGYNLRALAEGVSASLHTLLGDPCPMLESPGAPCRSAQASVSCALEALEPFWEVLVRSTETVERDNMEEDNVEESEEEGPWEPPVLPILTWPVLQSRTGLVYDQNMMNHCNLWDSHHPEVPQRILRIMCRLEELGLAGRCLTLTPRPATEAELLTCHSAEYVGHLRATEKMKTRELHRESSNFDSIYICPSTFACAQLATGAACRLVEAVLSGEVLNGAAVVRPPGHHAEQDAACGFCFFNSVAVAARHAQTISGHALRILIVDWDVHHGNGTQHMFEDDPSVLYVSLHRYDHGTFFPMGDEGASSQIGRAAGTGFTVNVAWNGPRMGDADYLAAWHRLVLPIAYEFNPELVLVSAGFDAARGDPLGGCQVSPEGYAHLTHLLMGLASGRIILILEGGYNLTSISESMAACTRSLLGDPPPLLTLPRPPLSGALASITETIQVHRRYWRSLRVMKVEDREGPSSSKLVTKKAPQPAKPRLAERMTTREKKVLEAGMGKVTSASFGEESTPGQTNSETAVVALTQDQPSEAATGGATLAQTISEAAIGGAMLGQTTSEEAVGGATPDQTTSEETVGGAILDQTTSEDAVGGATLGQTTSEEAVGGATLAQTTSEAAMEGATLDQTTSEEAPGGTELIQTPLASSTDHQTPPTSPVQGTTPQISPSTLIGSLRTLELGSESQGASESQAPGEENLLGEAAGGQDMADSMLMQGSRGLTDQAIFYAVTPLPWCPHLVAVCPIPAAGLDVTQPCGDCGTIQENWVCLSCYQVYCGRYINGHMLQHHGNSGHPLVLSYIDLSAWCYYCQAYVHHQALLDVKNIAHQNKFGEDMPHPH", "assay": "Change in cellular protein abundance (TMT proteomics) in Kelly cells", "type": "cell-based", "design": "relative change in relative protein abundance with treatment of Kelly cells; endogenous in cells; host or cells: Kelly cells", "details": "FIG. 3A"}},
  "note": "“Also recorded” adds a separate entry of the source.",
  "data": [
    {"smiles": "Cc1ncsc1-c1ccc([C@H](C)NC(=O)[C@@H]2C[C@@H](O)CN2C(=O)[C@@H](NC(=O)CCOCCOCCN(CCc2c[nH]c3ccccc23)Cc2ccc(/C=C/C(=O)NO)cc2)C(C)(C)C)cc1", "note": "[Compound 2, (2S,4R)-1-((S)-14-(tert-butyl)-3-(4-((E)-3-(hydroxyamino)-3-oxoprop-1-en-1-yl)benzyl)-1-(1H-indol-3-yl)-12-oxo-6,9-dioxa-3,13-diazapentadecan-15-oyl)-4-hydroxy-N—((S)-1-(4-(4-methylthiazol-5-yl)phenyl)ethyl)pyrrolidine-2-carboxamide]", "values": [
      {"measurement": "cellular protein levels of the other identified HDAC proteins (heat map FIG. 2)", "setting": "[1]", "result": "did not affect"}
    ]},
    {"smiles": "Cc1ncsc1-c1ccc(CNC(=O)[C@@H]2C[C@@H](O)CN2C(=O)[C@@H](NC(=O)C2(F)CC2)C(C)(C)C)c(OCCCCCN(CCc2c[nH]c3ccccc23)Cc2ccc(/C=C/C(=O)NO)cc2)c1", "note": "[Compound 7, (2S,4R)—N-(2-((5-((2-(1H-indol-3-yl)ethyl)(4-((E)-3-(hydroxyamino)-3-oxoprop-1-en-1-yl)benzyl)amino)pentyl)oxy)-4-(4-methylthiazol-5-yl)benzyl)-1-((S)-2-(1-fluorocyclopropane-1-carboxamido)-3,3-dimethylbutanoyl)-4-hydroxypyrrolidine-2-carboxamide]", "values": [
      {"measurement": "HDAC6 protein levels, relative protein abundance compared to DMSO control", "setting": "[2]", "result": "promote degradation; also recorded: significant and selective reduction"}
    ]}
  ]
}
